Results from patent publication US9493468B2, “Antifungal 5,6-dihydro-4H-pyrrolo[1,2-a][1,4]benzo-diazepines and 6H-pyrrolo[1,2-a][1,4]benzodiazepines substituted with heterocyclic derivatives” (Janssen Pharmaceutica NV, priority 2011, dated 2016).

Key:
Format in all cases: cell-based
Scedosporium prolificans = experiment: Antifungal activity in vitro, resazurin growth inhibition: Scedosporium prolificans (IHEM21157)
Method: (§1) The standard susceptibility screen is performed in 96-well plates (U-bottom, Greiner Bio-One). Serial dilutions (2-fold or 4-fold) of 20 mM compound stock solutions are made in 100% DMSO, followed by an intermediate dilution step in water. These serial dilutions (10 μl) are then spotted onto test-plates that can be stored in the dark at 4° C. for a maximum period of 2 weeks. An adequate broad dose-range is included with 64 μM as the highest in-test concentration. The culture medium RPMI-1640 is supplemented with L-glutamine, 2% glucose and buffered with 3-(N-morpholino)-propanesulfonic acid (MOPS) at pH 7.0±0.1.
(§2) The different fungal species/isolates (Table 3a) are cryopreserved and 1/1000 diluted in medium just prior to use. A standard inoculum of 200 μl containing 10^3 colony-forming unit (cfu) is then added to each well. A positive control (100% growth=fungal culture without antifungal) and a negative control (0% growth ═RPMI-MOPS medium) are included on each plate. Optimal incubation time and temperature are dependent on the fungal species and vary from 24 h for yeasts (37° C.) to one week or more for dermatophytes (27° C.). Inhibition of fungal growth is measured after adding 10 μl of 0.005% (w/v) resazurin (Sigma Aldrich) to each well, based on the principle that living cells convert the non-fluorescent blue resazurin into the pink and fluorescent resorufin, allowing fluorimetric reading (λex 550 nm and λem 590 nm) after an additional incubation period (‘resa’ time mentioned in Table 3a).

Candida parapsilosis = experiment: Antifungal activity in vitro, resazurin growth inhibition: Candida parapsilosis (B66126)
Summary of the method: (§3)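 Fungi (10^3 cfu/well) grown in RPMI-1640 with L-glutamine, 2% glucose, MOPS pH 7.0, against 2- or 4-fold compound dilutions up to 64 μM. Dermatophytes incubated one week or more at 27° C. Growth inhibition read fluorimetrically (λex 550, λem 590 nm) after resazurin addition and further incubation.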

Aspergillus fumigatus = experiment: Antifungal activity in vitro, resazurin growth inhibition: Aspergillus fumigatus (B42928)
Summary of the method: as §3

Scedosporium apiospermum = experiment: Antifungal activity in vitro, resazurin growth inhibition: Scedosporium apiospermum (IHEM3817)
Method: as §1, §2

Trichophyton rubrum = experiment: Antifungal activity in vitro, resazurin growth inhibition: Trichophyton rubrum (B68183)
Summary of the method: (§4)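 Compound dilutions, with 64 μM as the highest in-test level, are spotted onto plates, then an inoculum of 10^3 cfu in RPMI-1640 plus 2% glucose (MOPS, pH 7.0±0.1) is added. Plates are incubated at species-dependent time and temperature, up to a week or more at 27° C. for dermatophytes.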

Cryptococcus neoformans = experiment: Antifungal activity in vitro, resazurin growth inhibition: Cryptococcus neoformans (B66663)
Summary of the method: as §3

Rhizopus oryzae = experiment: Antifungal activity in vitro, resazurin growth inhibition: Rhizopus oryzae (IHEM5223)
Method: as §1, §2

[1] = tested on: Trichophyton mentagrophytes; experiment: Antifungal activity in vitro, resazurin growth inhibition: Trichophyton mentagrophytes (B70554)
Summary of the method: as §4

Sporothrix schenkii = experiment: Antifungal activity in vitro, resazurin growth inhibition: Sporothrix schenkii (B62482)
Summary of the method: as §3

Rhizomucor miehei = experiment: Antifungal activity in vitro, resazurin growth inhibition: Rhizomucor miehei (IHEM13391)
Method: as §1, §2

Microsporum canis = experiment: Antifungal activity in vitro, resazurin growth inhibition: Microsporum canis (B68128)
Summary of the method: as §4

Row | Inf. I: Scedosporium prolificans IHEM21157, pIC50 (Scedosporium prolificans) | Inf. D: Candida parapsilosis B66126, pIC50 (Candida parapsilosis) | Inf. E: Aspergillus fumigatus B42928, pIC50 (Aspergillus fumigatus) | Inf. H: Scedosporium apiospermum IHEM3817, pIC50 (Scedosporium apiospermum) | Inf. C: Trichophyton rubrum B68183, pIC50 (Trichophyton rubrum) | Inf. F: Cryptococcus neoformans B66663, pIC50 (Cryptococcus neoformans) | Inf. J: Rhizopus oryzae IHEM5223, pIC50 (Rhizopus oryzae) | Inf. G: Trichophyton mentagrophytes B70554, pIC50 [1] | Inf. A: Sporothrix schenkii B62482, pIC50 (Sporothrix schenkii) | Inf. K: Rhizomucor miehei IHEM13391, pIC50 (Rhizomucor miehei) | Inf. B: Microsporum canis B68128, pIC50 (Microsporum canis) | SMILES
1 | 6.51 | <4.19 | 5.74 | 5.63 | 6.63 | 6.47 | <4.19 | 6.18 | 5.55 | <4.19 | 6.23 | Fc1cccc2cc(C3=NCc4c(Cl)cccc4-n4cccc43)sc12 [Compound 170]
2 | 6.26 | 4.57 | 5.62 | 4.71 | >8.41 | 5.31 | <4.19 | 7.45 | 5.69 | 4.44 | 6.49 | COc1cccc2cc(C3=NCc4c(C)cccc4-n4cccc43)oc12 [Compound 144]
3 | 5.08 | 5.35 | 6.00 | 6.01 | 7.69 | 6.31 | 4.95 | 6.79 | 5.50 | 4.91 | 6.70 | Cc1cccc2cc(C3=NCc4ccccc4-n4cccc43)oc12 [Compound 130]
4 | 4.96 | 5.31 | 5.26 | <4.49 | 6.68 | 4.49 | <4.49 | 5.99 | 4.77 | <4.49 | 5.85 | Cc1cccc2c1CN=C(c1ccc3ncsc3c1)c1cccn1-2 [Compound 183]
5 | 5.98 | 4.25 | 6.82 | <4.19 | 7.47 | 5.70 | <4.19 | 7.28 | 5.70 | 4.88 | 7.02 | c1ccc2c(c1)CN=C(c1cc3ccccc3o1)c1cccn1-2 [Compound 115]
6 | 6.64 | <4.19 | 6.31 | 4.80 | 6.94 | 5.22 | <4.19 | 6.40 | <4.19 | <4.19 | 6.44 | Fc1cccc2cc(C3=NCc4c(Cl)cccc4-n4cccc43)oc12 [Compound 127]

More lines, now with the values behind:

Row | SMILES | Inf. I: Scedosporium prolificans IHEM21157, pIC50 (Scedosporium prolificans) | Inf. D: Candida parapsilosis B66126, pIC50 (Candida parapsilosis) | Inf. E: Aspergillus fumigatus B42928, pIC50 (Aspergillus fumigatus) | Inf. H: Scedosporium apiospermum IHEM3817, pIC50 (Scedosporium apiospermum) | Inf. C: Trichophyton rubrum B68183, pIC50 (Trichophyton rubrum) | Inf. F: Cryptococcus neoformans B66663, pIC50 (Cryptococcus neoformans) | Inf. J: Rhizopus oryzae IHEM5223, pIC50 (Rhizopus oryzae) | Inf. G: Trichophyton mentagrophytes B70554, pIC50 [1] | Inf. A: Sporothrix schenkii B62482, pIC50 (Sporothrix schenkii) | Inf. K: Rhizomucor miehei IHEM13391, pIC50 (Rhizomucor miehei) | Inf. B: Microsporum canis B68128, pIC50 (Microsporum canis)
7 | Fc1ccc2oc(C3=NCc4ccc(Cl)cc4-n4cccc43)cc2c1 [Compound 124] | 5.90 | <4.19 | 6.25 | <4.19 | 6.22 | 6.32 | 5.08 | 5.75 | 5.10 | <4.19 | 5.63
8 | Fc1ccc2oc(C3=NCc4c(Cl)cc(Cl)cc4-n4cccc43)cc2c1 [Compound 125] | 6.05 | <4.19 | 5.70 | 5.31 | 5.72 | 5.69 | <4.19 | 5.55 | 4.91 | <4.19 | 5.85
9 | Clc1cccc2c1CN=C(c1ccc3ccsc3c1)c1cccn1-2 [Compound 172] | 5.45 | 5.80 | 6.29 | 5.15 | 7.35 | 5.85 | <4.19 | 6.81 | 5.59 | 4.72 | 6.90
10 | Clc1cccc2c1-n1cccc1C(c1ccc3ncsc3c1)=NC2 [Compound 186] | 5.40 | <4.19 | 5.63 | 4.78 | 6.34 | 5.69 | <4.19 | 6.06 | 5.15 | 4.35 | 5.95
11 | Clc1cccc2c1CN=C(c1cc3ccccc3s1)c1cccn1-2 [Compound 165] | 4.46 | <4.19 | 5.28 | <4.19 | 6.70 | 5.81 | <4.19 | 5.86 | 5.12 | <4.19 | 6.19
12 | Clc1cccc2c1CN=C(c1cnc3occc3c1)c1cccn1-2 [Compound 161] | 6.27 | <4.19 | 5.04 | 6.47 | 6.12 | 4.56 | <4.19 | 5.40 | 5.02 | <4.19 | 5.96
13 | CC(C)n1ccc(C2=NCc3c(Cl)cccc3-n3cccc32)cc1=O [Compound 70] | 6.38 | 5.12 | 6.00 | 5.68 | 6.99 | 5.28 | 5.50 | 6.40 | 5.17 | 4.52 | 6.36
14 | FC(F)(F)c1ccc(C2=NCc3c(Cl)cc(Cl)cc3-n3cccc32)cn1 [Compound 91] | 5.28 | <4.19 | 5.75 | <4.19 | 6.27 | <4.19 | <4.19 | 5.72 | 5.10 | <4.19 | 5.69
